Measured values from patent US11912662B1, “2-alkoxy[4,3:6,2-terpyridine]-3-carbonitrile as antimicrobial compounds” (KING FAISAL UNIVERSITY, priority 2023, dated 2024).

Experiments:
Type in all cases: cell-based
Bacillus cereus = assay: Agar plate disc-diffusion antibacterial test, Bacillus cereus; conditions: nutrient agar, 37° C., 48 h, DMSO control zone subtracted
Experimental: (§1) The agar plate disc-diffusion method was applied. Sterilized filter papers (6 mm in diameter) were wetted with 10 μL of a solution of 2-ethoxy[4,3:6,2-terpyridine]-3-carbonitrile (4) or 2-methoxy[4,3:6,2-terpyridine]-3-carbonitrile (5) to be tested, containing […], and the discs were allowed to air dry. The discs were then placed onto the surface of agar plates (nutrient agar for bacteria and Sabouraud's dextrose agar for fungi) seeded with the test organism. Each plate contained 15 mL of the agar medium, previously seeded with 0.2 mL of the broth culture of each organism pre-grown for 18 hours. The plates were incubated at 37° C. for 48 h, and 72 h for fungi. The inhibition zones were measured in mm. Discs impregnated with DMSO were used as a control, and its inhibition zone was subtracted from the tested compound actual inhibition zone.
(§2) The results of the antimicrobial testing can be observed in Tables 1 and 2, below, using ciprofloxacin as a reference.

Staphylococcus aureus = assay: Agar plate disc-diffusion antibacterial test, Staphylococcus aureus; conditions: nutrient agar, 37° C., 48 h, DMSO control zone subtracted
Experimental: as §1, §2

Pseudomonas aeruginosa = assay: Agar plate disc-diffusion antibacterial test, Pseudomonas aeruginosa; conditions: nutrient agar, 37° C., 48 h, DMSO control zone subtracted
Experimental: as §1, §2

Escherichia coli = assay: Agar plate disc-diffusion antibacterial test, Escherichia coli; conditions: nutrient agar, 37° C., 48 h, DMSO control zone subtracted
Experimental: as §1, §2

Aspergillus flavus = assay: Agar plate disc-diffusion antifungal test, Aspergillus flavus; conditions: Sabouraud's dextrose agar, 37° C., 72 h, DMSO control zone subtracted
Experimental: as §1, §2

[1] = tested on: Chrysosporium keratinophilum; assay: Agar plate disc-diffusion antifungal test, Chrysosporium keratinophilum; conditions: Sabouraud's dextrose agar, 37° C., 72 h, DMSO control zone subtracted
Experimental: as §1, §2

[2] = A = concentration of comp. = 10,000 μL
[3] = B = concentration of comp. = 30.000 μL
[4] = C = concentration of comp. = 50,000 μL

Compound | inhibition zone (Bacillus cereus; [2]) | inhibition zone (Bacillus cereus; [3]) | inhibition zone (Bacillus cereus; [4]) | inhibition zone (Staphylococcus aureus; [2]) | inhibition zone (Staphylococcus aureus; [3]) | inhibition zone (Staphylococcus aureus; [4]) | inhibition zone (Pseudomonas aeruginosa; [2]) | inhibition zone (Pseudomonas aeruginosa; [3]) | inhibition zone (Pseudomonas aeruginosa; [4]) | inhibition zone (Escherichia coli; [2]) | inhibition zone (Escherichia coli; [3]) | inhibition zone (Escherichia coli; [4]) | inhibition zone (Aspergillus flavus; [2]) | inhibition zone (Aspergillus flavus; [3]) | inhibition zone (Aspergillus flavus; [4]) | inhibition zone [1, 2] | inhibition zone [1, 3] | inhibition zone [1, 4]
O=C(O)c1cn(C2CC2)c2cc(N3CCNCC3)c(F)cc2c1=O [Cip., ciprofloxacin, reference compound] | 29 mm | 30 mm | 42 mm | 43 mm | 44 mm | 53 mm | 29 mm | 30 mm | 53 mm | 30 mm | 39 mm | 60 mm | 29 mm | 30 mm | 42 mm | 29 mm | 30 mm | 53 mm
CCOc1nc(-c2ccccn2)cc(-c2cccnc2)c1C#N [Compound 4, 2-ethoxy[4,3:6,2-terpyridine]-3-carbonitrile] | 25 mm | 27 mm | 40 mm | 16 mm | 20 mm | 28 mm | 24 mm | 29 mm | 46 mm | 28 mm | 37 mm | 51 mm | 20 mm | 23 mm | 35 mm | 22 mm | 24 mm | 35 mm
COc1nc(-c2ccccn2)cc(-c2cccnc2)c1C#N [Compound 5, 2-methoxy[4,3:6,2-terpyridine]-3-carbonitrile] | 26 mm | 28 mm | 41 mm | 18 mm | 22 mm | 31 mm | 25 mm | 29 mm | 47 mm | 29 mm | 38 mm | 54 mm | 21 mm | 26 mm | 31 mm | 25 mm | 27 mm | 47 mm
